ChEMBL document CHEMBL5131391, “One-pot three-component synthesis of novel pyrazolo[3,4-b]pyridines as potent antileukemic agents” (Eur J Med Chem, 2022)

What follows are molecules tested on ML-2 (assay: Antiproliferative activity against human ML-2 cells assessed as reduction in cell viability incubated for 72 hrs by resazurin dye based assay). Conditions: ML-2, 72 h.
Format: functional

Row | SMILES | IC50 [µM]
1 | N#Cc1c(-c2ccco2)nc2c(c(-c3ccccc3)nn2-c2ccccc2)c1-c1ccc(O)cc1 | 12.8
2 | Cc1ccc(-c2nc3c(c(-c4ccccc4)nn3-c3ccccc3)c(-c3ccc(O)cc3)c2C#N)cc1 | 1.4

These molecules were tested on RS4-11 (assay: Antiproliferative activity against human RS4-11 cells assessed as reduction in cell viability incubated for 72 hrs by resazurin dye based assay). Conditions: RS4-11, 72 h.
Format: functional

Row | SMILES | IC50 [µM]
3 | N#Cc1c(-c2ccco2)nc2c(c(-c3ccccc3)nn2-c2ccccc2)c1-c1ccc(O)cc1 | 15.1
4 | Cc1ccc(-c2nc3c(c(-c4ccccc4)nn3-c3ccccc3)c(-c3ccc(O)cc3)c2C#N)cc1 | 2.7

Each molecule was assayed on CCRF-CEM (assay: Antiproliferative activity against human CCRF-CEM cells assessed as growth inhibition at 10 uM measured after 48 hrs by NCI protocol based SRB assay relative to control). Conditions: read-out: GI.
Format: functional

Row | SMILES | inhibition of growth at 10 µM [%]
5 | N#Cc1c(-c2ccco2)nc2c(c(-c3ccccc3)nn2-c2ccccc2)c1-c1ccc(O)cc1 | 59
6 | Cc1ccc(-c2nc3c(c(-c4ccccc4)nn3-c3ccccc3)c(-c3ccc(O)cc3)c2C#N)cc1 | 61

These molecules were tested on HOP-62 (assay: Antiproliferative activity against human HOP-62 cells assessed as growth inhibition at 10 uM measured after 48 hrs by NCI protocol based SRB assay relative to control). Conditions: read-out: GI.
Format: functional

Row | SMILES | inhibition of growth at 10 µM [%]
7 | N#Cc1c(-c2ccco2)nc2c(c(-c3ccccc3)nn2-c2ccccc2)c1-c1ccc(O)cc1 | 149
8 | Cc1ccc(-c2nc3c(c(-c4ccccc4)nn3-c3ccccc3)c(-c3ccc(O)cc3)c2C#N)cc1 | 60

The molecules below were run on NCI-H226 (assay: Antiproliferative activity against human NCI-H226 cells assessed as growth inhibition at 10 uM measured after 48 hrs by NCI protocol based SRB assay relative to control). Conditions: read-out: GI.
Format: functional

Row | SMILES | inhibition of growth at 10 µM [%]
9 | N#Cc1c(-c2ccco2)nc2c(c(-c3ccccc3)nn2-c2ccccc2)c1-c1ccc(O)cc1 | 27
10 | Cc1ccc(-c2nc3c(c(-c4ccccc4)nn3-c3ccccc3)c(-c3ccc(O)cc3)c2C#N)cc1 | 21

What follows are molecules tested on HCT-116 (assay: Antiproliferative activity against human HCT-116 cells assessed as growth inhibition at 10 uM measured after 48 hrs by NCI protocol based SRB assay relative to control). Conditions: read-out: GI.
Format: functional

Row | SMILES | inhibition of growth at 10 µM [%]
11 | N#Cc1c(-c2ccco2)nc2c(c(-c3ccccc3)nn2-c2ccccc2)c1-c1ccc(O)cc1 | 64
12 | Cc1ccc(-c2nc3c(c(-c4ccccc4)nn3-c3ccccc3)c(-c3ccc(O)cc3)c2C#N)cc1 | 58

These molecules were tested on COLO 205 (assay: Antiproliferative activity against human COLO 205 cells assessed as growth inhibition at 10 uM measured after 48 hrs by NCI protocol based SRB assay relative to control). Conditions: read-out: GI.
Format: functional

Row | SMILES | inhibition of growth at 10 µM [%]
13 | N#Cc1c(-c2ccco2)nc2c(c(-c3ccccc3)nn2-c2ccccc2)c1-c1ccc(O)cc1 | 97
14 | Cc1ccc(-c2nc3c(c(-c4ccccc4)nn3-c3ccccc3)c(-c3ccc(O)cc3)c2C#N)cc1 | 30

The molecules below were run on KM12 (assay: Antiproliferative activity against human KM12 cells assessed as growth inhibition at 10 uM measured after 48 hrs by NCI protocol based SRB assay relative to control). Conditions: read-out: GI.
Format: functional

Row | SMILES | inhibition of growth at 10 µM [%]
15 | N#Cc1c(-c2ccco2)nc2c(c(-c3ccccc3)nn2-c2ccccc2)c1-c1ccc(O)cc1 | 58
16 | Cc1ccc(-c2nc3c(c(-c4ccccc4)nn3-c3ccccc3)c(-c3ccc(O)cc3)c2C#N)cc1 | 45

Each molecule was assayed on HT-29 (assay: Antiproliferative activity against human HT-29 cells assessed as growth inhibition at 10 uM measured after 48 hrs by NCI protocol based SRB assay relative to control). Conditions: read-out: GI.
Format: functional

Row | SMILES | inhibition of growth at 10 µM [%]
17 | N#Cc1c(-c2ccco2)nc2c(c(-c3ccccc3)nn2-c2ccccc2)c1-c1ccc(O)cc1 | 70

What follows are molecules tested on SF-539 (assay: Antiproliferative activity against human SF-539 cells assessed as growth inhibition at 10 uM measured after 48 hrs by NCI protocol based SRB assay relative to control). Conditions: read-out: GI.
Format: functional

Row | SMILES | inhibition of growth at 10 µM [%]
18 | N#Cc1c(-c2ccco2)nc2c(c(-c3ccccc3)nn2-c2ccccc2)c1-c1ccc(O)cc1 | 18
19 | Cc1ccc(-c2nc3c(c(-c4ccccc4)nn3-c3ccccc3)c(-c3ccc(O)cc3)c2C#N)cc1 | 85

The molecules below were run on SF-295 (assay: Antiproliferative activity against human SF-295 cells assessed as growth inhibition at 10 uM measured after 48 hrs by NCI protocol based SRB assay relative to control). Conditions: read-out: GI.
Format: functional

Row | SMILES | inhibition of growth at 10 µM [%]
20 | N#Cc1c(-c2ccco2)nc2c(c(-c3ccccc3)nn2-c2ccccc2)c1-c1ccc(O)cc1 | 34
21 | Cc1ccc(-c2nc3c(c(-c4ccccc4)nn3-c3ccccc3)c(-c3ccc(O)cc3)c2C#N)cc1 | 120

These molecules were tested on MDA-MB-435 (assay: Antiproliferative activity against human MDA-MB-435 cells assessed as growth inhibition at 10 uM measured after 48 hrs by NCI protocol based SRB assay relative to control). Conditions: read-out: GI.
Format: functional

Row | SMILES | inhibition of growth at 10 µM [%]
22 | N#Cc1c(-c2ccco2)nc2c(c(-c3ccccc3)nn2-c2ccccc2)c1-c1ccc(O)cc1 | 38
23 | Cc1ccc(-c2nc3c(c(-c4ccccc4)nn3-c3ccccc3)c(-c3ccc(O)cc3)c2C#N)cc1 | 36

Each molecule was assayed on Malme-3M (assay: Antiproliferative activity against human Malme-3M cells assessed as growth inhibition at 10 uM measured after 48 hrs by NCI protocol based SRB assay relative to control). Conditions: read-out: GI.
Format: functional

Row | SMILES | inhibition of growth at 10 µM [%]
24 | N#Cc1c(-c2ccco2)nc2c(c(-c3ccccc3)nn2-c2ccccc2)c1-c1ccc(O)cc1 | 66
25 | Cc1ccc(-c2nc3c(c(-c4ccccc4)nn3-c3ccccc3)c(-c3ccc(O)cc3)c2C#N)cc1 | 25

These molecules were tested on LOX IMVI (assay: Antiproliferative activity against human LOX IMVI cells assessed as growth inhibition at 10 uM measured after 48 hrs by NCI protocol based SRB assay relative to control). Conditions: read-out: GI.
Format: functional

Row | SMILES | inhibition of growth at 10 µM [%]
26 | Cc1ccc(-c2nc3c(c(-c4ccccc4)nn3-c3ccccc3)c(-c3ccc(O)cc3)c2C#N)cc1 | 88

Each molecule was assayed on SK-MEL-2 (assay: Antiproliferative activity against human SK-MEL-2 cells assessed as growth inhibition at 10 uM measured after 48 hrs by NCI protocol based SRB assay relative to control). Conditions: read-out: GI.
Format: functional

Row | SMILES | inhibition of growth at 10 µM [%]
27 | N#Cc1c(-c2ccco2)nc2c(c(-c3ccccc3)nn2-c2ccccc2)c1-c1ccc(O)cc1 | 30
28 | Cc1ccc(-c2nc3c(c(-c4ccccc4)nn3-c3ccccc3)c(-c3ccc(O)cc3)c2C#N)cc1 | 22

Each molecule was assayed on IGROV-1 (assay: Antiproliferative activity against human IGROV-1 cells assessed as growth inhibition at 10 uM measured after 48 hrs by NCI protocol based SRB assay relative to control). Conditions: read-out: GI.
Format: functional

Row | SMILES | inhibition of growth at 10 µM [%]
29 | N#Cc1c(-c2ccco2)nc2c(c(-c3ccccc3)nn2-c2ccccc2)c1-c1ccc(O)cc1 | 16
30 | Cc1ccc(-c2nc3c(c(-c4ccccc4)nn3-c3ccccc3)c(-c3ccc(O)cc3)c2C#N)cc1 | 18

Each molecule was assayed on OVCAR-3 (assay: Antiproliferative activity against human OVCAR-3 cells assessed as growth inhibition at 10 uM measured after 48 hrs by NCI protocol based SRB assay relative to control). Conditions: read-out: GI.
Format: functional

Row | SMILES | inhibition of growth at 10 µM [%]
31 | N#Cc1c(-c2ccco2)nc2c(c(-c3ccccc3)nn2-c2ccccc2)c1-c1ccc(O)cc1 | 14
32 | Cc1ccc(-c2nc3c(c(-c4ccccc4)nn3-c3ccccc3)c(-c3ccc(O)cc3)c2C#N)cc1 | 36

These molecules were tested on OVCAR-4 (assay: Antiproliferative activity against human OVCAR-4 cells assessed as growth inhibition at 10 uM measured after 48 hrs by NCI protocol based SRB assay relative to control). Conditions: read-out: GI.
Format: functional

Row | SMILES | inhibition of growth at 10 µM [%]
33 | N#Cc1c(-c2ccco2)nc2c(c(-c3ccccc3)nn2-c2ccccc2)c1-c1ccc(O)cc1 | 23
34 | Cc1ccc(-c2nc3c(c(-c4ccccc4)nn3-c3ccccc3)c(-c3ccc(O)cc3)c2C#N)cc1 | 18

The molecules below were run on SK-OV-3 (assay: Antiproliferative activity against human SK-OV-3 cells assessed as growth inhibition at 10 uM measured after 48 hrs by NCI protocol based SRB assay relative to control). Conditions: read-out: GI.
Format: functional

Row | SMILES | inhibition of growth at 10 µM [%]
35 | N#Cc1c(-c2ccco2)nc2c(c(-c3ccccc3)nn2-c2ccccc2)c1-c1ccc(O)cc1 | 54

These molecules were tested on SN12C (assay: Antiproliferative activity against human SN12C cells assessed as growth inhibition at 10 uM measured after 48 hrs by NCI protocol based SRB assay relative to control). Conditions: read-out: GI.
Format: functional

Row | SMILES | inhibition of growth at 10 µM [%]
36 | N#Cc1c(-c2ccco2)nc2c(c(-c3ccccc3)nn2-c2ccccc2)c1-c1ccc(O)cc1 | 18
37 | Cc1ccc(-c2nc3c(c(-c4ccccc4)nn3-c3ccccc3)c(-c3ccc(O)cc3)c2C#N)cc1 | 47

What follows are molecules tested on ACHN (assay: Antiproliferative activity against human ACHN cells assessed as growth inhibition at 10 uM measured after 48 hrs by NCI protocol based SRB assay relative to control). Conditions: read-out: GI.
Format: functional

Row | SMILES | inhibition of growth at 10 µM [%]
38 | N#Cc1c(-c2ccco2)nc2c(c(-c3ccccc3)nn2-c2ccccc2)c1-c1ccc(O)cc1 | 28
39 | Cc1ccc(-c2nc3c(c(-c4ccccc4)nn3-c3ccccc3)c(-c3ccc(O)cc3)c2C#N)cc1 | 33

These molecules were tested on RXF 393 (assay: Antiproliferative activity against human RXF 393 cells assessed as growth inhibition at 10 uM measured after 48 hrs by NCI protocol based SRB assay relative to control). Conditions: read-out: GI.
Format: functional

Row | SMILES | inhibition of growth at 10 µM [%]
40 | Cc1ccc(-c2nc3c(c(-c4ccccc4)nn3-c3ccccc3)c(-c3ccc(O)cc3)c2C#N)cc1 | 110

These molecules were tested on TK-10 (assay: Antiproliferative activity against human TK-10 cells assessed as growth inhibition at 10 uM measured after 48 hrs by NCI protocol based SRB assay relative to control). Conditions: read-out: GI.
Format: functional

Row | SMILES | inhibition of growth at 10 µM [%]
41 | N#Cc1c(-c2ccco2)nc2c(c(-c3ccccc3)nn2-c2ccccc2)c1-c1ccc(O)cc1 | 11
42 | Cc1ccc(-c2nc3c(c(-c4ccccc4)nn3-c3ccccc3)c(-c3ccc(O)cc3)c2C#N)cc1 | 62

Each molecule was assayed on BT-549 (assay: Antiproliferative activity against human BT-549 cells assessed as growth inhibition at 10 uM measured after 48 hrs by NCI protocol based SRB assay relative to control). Conditions: read-out: GI.
Format: functional

Row | SMILES | inhibition of growth at 10 µM [%]
43 | N#Cc1c(-c2ccco2)nc2c(c(-c3ccccc3)nn2-c2ccccc2)c1-c1ccc(O)cc1 | 36
44 | Cc1ccc(-c2nc3c(c(-c4ccccc4)nn3-c3ccccc3)c(-c3ccc(O)cc3)c2C#N)cc1 | 24

The molecules below were run on MDA-MB-468 (assay: Antiproliferative activity against human MDA-MB-468 cells assessed as growth inhibition at 10 uM measured after 48 hrs by NCI protocol based SRB assay relative to control). Conditions: read-out: GI.
Format: functional

Row | SMILES | inhibition of growth at 10 µM [%]
45 | Cc1ccc(-c2nc3c(c(-c4ccccc4)nn3-c3ccccc3)c(-c3ccc(O)cc3)c2C#N)cc1 | 48

These molecules were tested on CCRF-CEM (assay: Antiproliferative activity against human CEM cells assessed as reduction in cell viability incubated for 72 hrs by resazurin dye based assay). Conditions: not given.
Format: functional

Row | SMILES | IC50 [µM]
46 | N#Cc1c(-c2ccco2)nc2c(c(-c3ccccc3)nn2-c2ccccc2)c1-c1ccc(O)cc1 | 23.9
47 | Cc1ccc(-c2nc3c(c(-c4ccccc4)nn3-c3ccccc3)c(-c3ccc(O)cc3)c2C#N)cc1 | 13.4

These molecules were tested on KOPN-8 (assay: Antiproliferative activity against human KOPN-8 cells assessed as reduction in cell viability incubated for 72 hrs by resazurin dye based assay). Conditions: KOPN-8, 72 h.
Format: functional

Row | SMILES | IC50 [µM]
48 | N#Cc1c(-c2ccco2)nc2c(c(-c3ccccc3)nn2-c2ccccc2)c1-c1ccc(O)cc1 | 10
49 | Cc1ccc(-c2nc3c(c(-c4ccccc4)nn3-c3ccccc3)c(-c3ccc(O)cc3)c2C#N)cc1 | 0.3
